Assay results from PubChem BioAssay (NCI).
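Values below derive from 48-hour exposures of cells grown in 96-well plates, with endpoints linearly interpolated between the two concentrations bracketing the appropriate inhibition level. Here, GI50 denotes the concentration required for 50% inhibition of growth. TGI: total growth inhibition.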

Assays:
Assay in all cases: growth of human tumour cells (NCI), 48 h; in the data active = GI50 below about 0.43 µM; inactive = the rest
SNB-19 CNS = tested on: SNB-19 CNS
SN12C renal = tested on: SN12C renal
HS 578T breast = tested on: HS 578T breast
SK-OV-3 ovarian = tested on: SK-OV-3 ovarian
RPMI-8226 leukemia = tested on: RPMI-8226 leukemia
SNB-75 CNS = tested on: SNB-75 CNS
RXF 393 renal = tested on: RXF 393 renal
IGROV1 ovarian = tested on: IGROV1 ovarian
SR leukemia = tested on: SR leukemia
CAKI-1 renal = tested on: CAKI-1 renal
NCI-H226 lung = tested on: NCI-H226 lung
786-0 renal = tested on: 786-0 renal
OVCAR-5 ovarian = tested on: OVCAR-5 ovarian
HT29 colon = tested on: HT29 colon
OVCAR-3 ovarian = tested on: OVCAR-3 ovarian
ACHN renal = tested on: ACHN renal
A549 NSCLC = tested on: A549 NSCLC
K-562 leukemia = tested on: K-562 leukemia
MDA-MB-231 breast = tested on: MDA-MB-231 breast
NCI-H23 lung = tested on: NCI-H23 lung
NCI-H460 lung = tested on: NCI-H460 lung
MCF7 breast = tested on: MCF7 breast
DU-145 prostate = tested on: DU-145 prostate
SK-MEL-2 melanoma = tested on: SK-MEL-2 melanoma
SF-539 CNS = tested on: SF-539 CNS
UACC-257 melanoma = tested on: UACC-257 melanoma
SF-268 CNS = tested on: SF-268 CNS
HCT-15 colon = tested on: HCT-15 colon
UO-31 renal = tested on: UO-31 renal

COc1ccccc1Nc1nc(-c2cc3cccc(C(F)(F)F)c3oc2=O)cs1
11900 nM: TGI (HT29 colon)
inactive: GI50 (SNB-19 CNS) 1150 nM | GI50 (SN12C renal) 1040 nM | GI50 (NCI-H226 lung) 601 nM | GI50 (OVCAR-5 ovarian) 572 nM | GI50 (MDA-MB-231 breast) 516 nM | GI50 (UACC-257 melanoma) 1710 nM | GI50 (UO-31 renal) 527 nM
16700 nM: TGI (SNB-75 CNS)
30700 nM: TGI (RXF 393 renal)
199 nM: TGI (SF-539 CNS)
active: GI50 (HS 578T breast) 277 nM | GI50 (SK-OV-3 ovarian) 237 nM | GI50 (RPMI-8226 leukemia) 240 nM | GI50 (SNB-75 CNS) 30.5 nM | GI50 (RXF 393 renal) 65.7 nM | GI50 (IGROV1 ovarian) 257 nM | GI50 (SR leukemia) 84 nM | GI50 (CAKI-1 renal) 142 nM | GI50 (786-0 renal) 218 nM | GI50 (HT29 colon) 126 nM | GI50 (OVCAR-3 ovarian) 62.4 nM | GI50 (ACHN renal) 106 nM | GI50 (A549 NSCLC) 261 nM | GI50 (K-562 leukemia) 53.8 nM | GI50 (NCI-H23 lung) 345 nM | GI50 (NCI-H460 lung) 218 nM | GI50 (MCF7 breast) 57.4 nM | GI50 (DU-145 prostate) 263 nM | GI50 (SK-MEL-2 melanoma) 262 nM | GI50 (SF-539 CNS) 43 nM | GI50 (SF-268 CNS) 214 nM | GI50 (HCT-15 colon) 151 nM
56300 nM: TGI (NCI-H226 lung)
> 55900 nM: TGI (MDA-MB-231 breast)
> 45900 nM: TGI (NCI-H23 lung)
> 42900 nM: TGI (786-0 renal)
> 71400 nM: TGI (RPMI-8226 leukemia)
203 nM: TGI (OVCAR-3 ovarian)
> 93900 nM: TGI (SK-OV-3 ovarian)
> 39500 nM: TGI (NCI-H460 lung)
> 81200 nM: TGI (HS 578T breast)
> 53000 nM: TGI (IGROV1 ovarian)
> 100000 nM: TGI (SNB-19 CNS) | TGI (SN12C renal) | TGI (SR leukemia) | TGI (CAKI-1 renal) | TGI (OVCAR-5 ovarian) | TGI (ACHN renal) | TGI (A549 NSCLC) | TGI (K-562 leukemia) | TGI (MCF7 breast) | TGI (SK-MEL-2 melanoma) | TGI (UACC-257 melanoma) | TGI (SF-268 CNS) | TGI (HCT-15 colon)
